Assay results taken from patent US20030077222A1, “Individualization of therapy with analgesics” (McGill University, priority 2001, published 2003).
pIC50: −log10 of the molar value. Where two headings read alike, the source gives them in different places. Marks after values point to notes of the source that are not given here.

Key:
1X-Ab = assay: Competitive antigen ELISA, cross-reactivity of 1X-Ab; type: binding, rabbit; conditions: for % Cross-Reaction 1X-Ab: competitive antigen ELISA, 0 = absence of inhibition or inhibition no higher than 40% at highest concentration tested (5×10^−3 M)
Method: (§1) Four mature females New Zealand white rabbits (Charles River Canada, St-Constant, Que., Canada) are used for antibody production. The protocol employed in this study was approved by the McGill University Animal Care Committee in accordance with the guidelines from the Canadian Council on Animal Care. Antibodies of the present invention may be monoclonal or polyclonal antibodies.
(§2) A 0.5 mL aliquot of the emulsion ([…] of antigen) is injected per rabbit intramuscularly or subcutaneously. Rabbits are subsequently boosted at intervals of three weeks with […] of antigen emulsified in incomplete Freund's adjuvant. […] Antisera are stored at 4° C. in the presence of 0.01% sodium azide.
(§3) Buffers and water without additives are filtered through millipore filters and kept for 1 week. BSA, antibodies, Tween™ 20 and horse radish peroxidase conjugates are added to these buffers and water just prior to use. Urine samples are usually collected 4 hours after drinking a cup of coffee (instant or brewed with approximately 100 mg of caffeine per cup) and stored at −80° C. The urine samples are diluted 10 times with sodium phosphate buffer (620 mosm, pH 7.50) and are subsequently diluted with water to give concentrations of AAMU and 1X no higher than 3×10^−6 M in the ELISA. All the pipettings are done with an eight-channel pipette, except those of the antibody and sample solutions. Starting with the last well, 100 μL of a carbonate buffer (100 mM, pH 9.6) containing 2.5 μg mL−^1 antibodies are added to each well. After 90 min. at room temperature, the wells are washed three times with […] of TPB: isotonic sodium phosphate buffer (310 mosm, pH 7.50) containing 0.05% Tween™ 20.
(§4) After the initial wash, unoccupied sites are blocked by incubation for 90 min. at room temperature with 100 μL TBP containing 3% BSA. The wells are washed four times with 100 μL TPB. […] The microplate is gently shaken with an orbital shaker at room temperature for 3-4 hours. The wells are washed three times with 100 μL TPB containing 1% BSA and three times with water containing 0.05% Tween™ 20. To the washed plate is added 150 μL of a substrate buffer composed of citric acid (25 mM) and sodium phosphate dibasic buffer (50 mM, pH 5.0) containing 0.06% hydrogen peroxide and 0.04% o-phenylenediamine hydrochloride.
(§5) Buffers and water without additives were filtered through millipore filters and kept for 1 week. BSA, antibodies, Tween™ 20 and horse radish peroxidase conjugates were added to these buffers and water just prior to use. Urine samples were usually collected 4 hours after drinking a cup of coffee (instant or brewed with approximately 100 mg of caffeine per cup) and stored at −80° C. They were diluted 10 times with sodium phosphate buffer (620 mosm, pH 7.50) and were subsequently diluted with water to give concentrations of AAMU and 1X no higher than 3×10^−6 M in the ELISA. All the pipettings were done with an eight-channel pipette, except those of the antibody and sample solutions. Starting with the last well, 100 μL of a carbonate buffer (100 mM, pH 9.6) containing 2.5 μg mL−^1 antibodies was pipetted. After 90 min. at room temperature, the wells were washed three times with 100 μL of TPB: isotonic sodium phosphate buffer (310 mosm, pH 7.50) containing 0.05% Tween™ 20.
(§6) After the initial wash, unoccupied sites were blocked by incubation for 90 min. at room temperature with 100 μL TBP containing 3% BSA. The wells were washed four times with 100 μL TPB. […] The microplate was gently shaken with an orbital shaker at room temperature for 3-4 hours. The wells were washed three times with […] TPB containing 1% BSA and three times with water containing 0.05% Tween™ 20. To the washed plate was added 150 μL of a substrate buffer composed of citric acid (25 mM) and sodium phosphate dibasic buffer (50 mM, pH 5.0) containing 0.06% hydrogen peroxide and 0.04% o-phenylenediamine hydrochloride.

AAMU-Ab = assay: Competitive antigen ELISA, cross-reactivity of AAMU-Ab; type: binding, rabbit; conditions: for % Cross-Reaction AAMU-Ab: competitive antigen ELISA, 0 = absence of inhibition or inhibition no higher than 40% at highest concentration tested (5×10^−3 M)
Method: as §1, §2, §3, §4, §5, §6

[1] = cited from earlier work
[2] = cited from earlier work; remark: listed apart in the source

## O=c1[nH]c(=O)c2[nH]cnc2[nH]1 [Xanthine]
1X-Ab
  % Cross-Reaction 1X-Ab: 0%
AAMU-Ab
  % Cross-Reaction AAMU-Ab: 0^a %

## O=c1[nH]cnc2nc[nH]c12 [Hypoxanthine]
1X-Ab
  % Cross-Reaction 1X-Ab: 0%
AAMU-Ab
  % Cross-Reaction AAMU-Ab: 0%

## CC(=O)Nc1c(N)n(C)c(=O)n(C)c1=O [5-Acetamino-6-amino-1,3-dimethyluracil]
1X-Ab
  % Cross-Reaction 1X-Ab: 0%
AAMU-Ab
  % Cross-Reaction AAMU-Ab: 0%

## CC(=O)Nc1c(N)n(C)c(=O)[nH]c1=O [5-Acetamino-6-amino-1-methyluracil]
1X-Ab
  % Cross-Reaction 1X-Ab: 0%
AAMU-Ab
  % Cross-Reaction AAMU-Ab: 100%
AAMU-Ab; read-out: concentration required for 50% inhibition in the competitive antigen ELISA, AAMU-Ab
  pIC50: 5.82

## Cc1nc2[nH]c(=O)[nH]c(=O)c2[nH]1 [8-Methyl Xanthine]
1X-Ab
  % Cross-Reaction 1X-Ab: 0%
AAMU-Ab
  % Cross-Reaction AAMU-Ab: 0%

## Cn1c(=O)c2c(ncn2C)n(C)c1=O [1,3,7-Trimethyl Xanthine (Caffeine), 1,3,7-Trimethyl Xanthine]
1X-Ab
  % Cross-Reaction 1X-Ab: 0%
AAMU-Ab
  % Cross-Reaction AAMU-Ab: 0%

## Cn1c(=O)[nH]c2[nH]c(=O)[nH]c2c1=O [1-Methyluric acid]
1X-Ab
  % Cross-Reaction 1X-Ab: 11%
AAMU-Ab
  % Cross-Reaction AAMU-Ab: 0%

## COc1cccc(C2(O)CCCCC2CN(C)C)c1 (stereo not drawn) [tramadol]
[1]; extensive metabolizers (CYP2D6), 15 individuals
  experimental pain model procedures with statistically significant effects: seven of seven
[1]; poor metabolizers (CYP2D6), 12 individuals
  experimental pain model procedures with statistically significant effects: three of seven

## O=c1[nH]c(=O)c2[nH]c(=O)[nH]c2[nH]1 [Uric acid]
1X-Ab
  % Cross-Reaction 1X-Ab: 0%
AAMU-Ab
  % Cross-Reaction AAMU-Ab: 0%

## O=c1cc[nH]c(=O)[nH]1 [Uracil]
1X-Ab
  % Cross-Reaction 1X-Ab: 0%
AAMU-Ab
  % Cross-Reaction AAMU-Ab: 0%

## Cn1c(=O)[nH]c2[nH]c(=O)n(C)c2c1=O [1,7-Dimethyluric acid]
1X-Ab
  % Cross-Reaction 1X-Ab: 0%
AAMU-Ab
  % Cross-Reaction AAMU-Ab: 0%

## Nc1nc2nc[nH]c2c(=O)[nH]1 [Guanine]
1X-Ab
  % Cross-Reaction 1X-Ab: 0%
AAMU-Ab
  % Cross-Reaction AAMU-Ab: 0%

## Cn1c(=O)[nH]c(=O)c2[nH]cnc21 [3-Methyl Xanthine]
1X-Ab
  % Cross-Reaction 1X-Ab: 0%
AAMU-Ab
  % Cross-Reaction AAMU-Ab: 0%

## Cn1c(=O)[nH]c2nc[nH]c2c1=O [1-Methyl Xanthine (1X), 1-Methyl Xanthine]
1X-Ab
  % Cross-Reaction 1X-Ab: 100%
1X-Ab; read-out: concentration required for 50% inhibition in the competitive antigen ELISA, 1X-Ab
  pIC50: 5.00
AAMU-Ab
  % Cross-Reaction AAMU-Ab: 0%

## Cn1c(=O)c2[nH]cnc2n(C)c1=O [1,3-Dimethyl Xanthine (Theophylline), 1,3-Dimethyl Xanthine]
1X-Ab
  % Cross-Reaction 1X-Ab: 0.2%
AAMU-Ab
  % Cross-Reaction AAMU-Ab: 0%

## Cn1c(=O)[nH]c2ncn(C)c2c1=O [1,7-Dimethyl Xanthine (Paraxanthine), 1,7-Dimethyl Xanthine]
1X-Ab
  % Cross-Reaction 1X-Ab: 0.5%
AAMU-Ab
  % Cross-Reaction AAMU-Ab: 0%

## CC(=O)Nc1c(N)[nH]c(=O)[nH]c1=O [5-Acetamino-6-amino-uracil]
1X-Ab
  % Cross-Reaction 1X-Ab: 0%
AAMU-Ab
  % Cross-Reaction AAMU-Ab: 0.6%

## Nc1ccc(S(=O)(=O)c2ccc(N)cc2)cc1 [dapsone]
[2]; fast acetylators
  adverse reactions to dapsone: 17%
[2]; slow acetylators
  adverse reactions to dapsone: 46%

## Cn1cnc2[nH]c(=O)[nH]c(=O)c21 [7-Methyl Xanthine]
1X-Ab
  % Cross-Reaction 1X-Ab: 0%
AAMU-Ab
  % Cross-Reaction AAMU-Ab: 0%

## Cn1cnc2c1c(=O)[nH]c(=O)n2C [3,7-Dimethyl Xanthine (Theobromine), 3,7-Dimethyl Xanthine]
1X-Ab
  % Cross-Reaction 1X-Ab: 0%
AAMU-Ab
  % Cross-Reaction AAMU-Ab: 0%
